Data taken from paper PMC7427786, “An essential role of acetyl coenzyme A in the catalytic cycle of insect arylalkylamine N-acetyltransferase” (Communications Biology, 2020).

Columns and labels:
Assay type in all cases: binding
[1] = molecular target: T1, Dat (dopamine N-acetyltransferase; Dat21-230) (Drosophila melanogaster, UniProt Q94521); assay: X-ray crystallography (cocrystallization of Dat, Ac-CoA and PEA); NMR HSQC; details: ternary complex with CoA; product formed in the crystal
T1 construct: gene speck; truncated Dat residues 21-230 of 240; pGEX-6p3, GST tag cut by PreScission protease; E. coli BL21 (DE3)
T1 sequence (Q94521 56-265): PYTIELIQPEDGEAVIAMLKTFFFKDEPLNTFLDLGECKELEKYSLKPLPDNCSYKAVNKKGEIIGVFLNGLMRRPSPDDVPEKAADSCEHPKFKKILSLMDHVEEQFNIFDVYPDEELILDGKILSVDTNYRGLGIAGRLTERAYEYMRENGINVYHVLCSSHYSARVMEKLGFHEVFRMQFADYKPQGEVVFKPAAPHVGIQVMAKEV

[2] = molecular target: T1, Dat (dopamine N-acetyltransferase; Dat21-230); assay: X-ray crystallography, cocrystal; details: substrate pocket
[3] = molecular target: T1, Dat (dopamine N-acetyltransferase; Dat21-230); assay: isothermal titration calorimetry
Text: isothermal titration calorimetry on Dat (dopamine N-acetyltransferase; Dat21-230)

CC(=O)NCCc1ccccc1 [Ac-PEA]
X-ray crystallography (cocrystallization of Dat, Ac-CoA and PEA); NMR HSQC [1]: crystals of Dat with two products, CoA and Ac-PEA (PDB code: 5GI7)

CC(=O)NCCc1c[nH]c2ccccc12 [Ac-TRYP]
X-ray crystallography, cocrystal ([2]; ternary complex with CoA, 1.36 Å): Dat/CoA/Ac-TRYP (representing the enzyme-products complex)

OCCc1c[nH]c2ccccc12 [tryptophol]
X-ray crystallography, cocrystal ([2]; ternary complex with Ac-CoA, dead-end analog of tryptamine, 1.28 Å): Dat/Ac-CoA/tryptophol (mimicking the enzyme-substrates complex)

CC(=O)SCCNC(=O)CCNC(=O)[C@H](O)C(C)(C)COP(=O)(O)OP(=O)(O)OC[C@H]1O[C@@H](n2cnc3c(N)ncnc32)[C@H](O)[C@@H]1OP(=O)(O)O [Ac-CoA]
Kd [3]: 5.51 ± 1.92 µM

CC(C)(COP(=O)(O)OP(=O)(O)OC[C@H]1O[C@@H](n2cnc3c(N)ncnc32)[C@H](O)[C@@H]1OP(=O)(O)O)[C@@H](O)C(=O)NCCC(=O)NCCS [CoA]
Kd [3]: 153 ± 26.5 µM
